System: 743489-274-T-PDC complex spheroid viability
Assay: Anticancer human tumor 743489-274-T-PDC patient-derived renal cell carcinoma cell line growth inhibition
Conditions: for IC50: curve of first compound; for viability, T/C: stronger effect = lower value
Method in brief: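 Complex spheroids of tumor cells with HUVEC and human MSCs, exposed to iadademstat combined with other agents. Each agent tested in half-log steps from near clinical Cmax (else 10 microM top), DMSO ≤0.25%.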

[1] = second compound 0.1 µM, first compound 0.0316 µM
[2] = second compound 0.1 µM, first compound 0.1 µM
[3] = second compound 0.1 µM, first compound 0.316 µM
[4] = second compound 0.1 µM, first compound 1 µM
[5] = second compound 0.1 µM, first compound 3.16 µM
[6] = second compound 0.1 µM, first compound 10 µM
[7] = second compound 0.316 µM, first compound 0.0316 µM
[8] = second compound 0.316 µM, first compound 0.1 µM
[9] = second compound 0.316 µM, first compound 0.316 µM
[10] = second compound 0.316 µM, first compound 1 µM
[11] = second compound 0.316 µM, first compound 3.16 µM
[12] = second compound 0.316 µM, first compound 10 µM
[13] = second compound 1 µM, first compound 0.0316 µM
[14] = second compound 1 µM, first compound 0.1 µM
[15] = second compound 1 µM, first compound 0.316 µM
[16] = second compound 1 µM, first compound 1 µM
[17] = second compound 1 µM, first compound 3.16 µM
[18] = second compound 1 µM, first compound 10 µM
[19] = second compound 3.16 µM, first compound 0.0316 µM
[20] = second compound 3.16 µM, first compound 0.1 µM
[21] = second compound 3.16 µM, first compound 0.316 µM
[22] = second compound 3.16 µM, first compound 1 µM
[23] = second compound 3.16 µM, first compound 3.16 µM
[24] = second compound 3.16 µM, first compound 10 µM
[25] = second compound 10 µM, first compound 0.0316 µM
[26] = second compound 10 µM, first compound 0.1 µM
[27] = second compound 10 µM, first compound 0.316 µM
[28] = second compound 10 µM, first compound 1 µM
[29] = second compound 10 µM, first compound 3.16 µM
[30] = second compound 10 µM, first compound 10 µM
[31] = second compound 0.1 µM, first compound 0.00316 µM
[32] = second compound 0.1 µM, first compound 0.01 µM
[33] = second compound 0.316 µM, first compound 0.00316 µM
[34] = second compound 0.316 µM, first compound 0.01 µM
[35] = second compound 1 µM, first compound 0.00316 µM
[36] = second compound 1 µM, first compound 0.01 µM
[37] = second compound 3.16 µM, first compound 0.00316 µM
[38] = second compound 3.16 µM, first compound 0.01 µM
[39] = second compound 10 µM, first compound 0.00316 µM
[40] = second compound 10 µM, first compound 0.01 µM
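Further: spheroids exposed to compounds for 7 days before readout.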
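Wherever viability, T/C is given: 100% = DMSO vehicle control wells.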

`CC(C)c1c(-c2ccccc2)nc2c(C#N)c[nH]n2c1=O` + NC1CCC(NC2CC2c2ccccc2)CC1 showed an IC50 (second compound 0.1 µM) greater than 10 µM, an IC50 (second compound 0.316 µM) greater than 10 µM and an IC50 (second compound 1 µM) greater than 10 µM. For the same compound, the IC50 (second compound 3.16 µM) was greater than 10 µM, the IC50 (second compound 10 µM) was greater than 10 µM and the viability, T/C [1] was 97.2%. The viability, T/C [2] was 115%, the viability, T/C [3] was 104% and the viability, T/C [4] was 127%. The viability, T/C [5] was 99.9%, the viability, T/C [6] was 104% and the viability, T/C [7] was 106%. The viability, T/C [8] was 99.3%, the viability, T/C [9] was 126% and the viability, T/C [10] was 108%. For the same compound, the viability, T/C [11] was 108%, the viability, T/C [12] was 104% and the viability, T/C [13] was 119%. It also gave a viability, T/C [14] of 120%, a viability, T/C [15] of 100% and a viability, T/C [16] of 111%. It also gave a viability, T/C [17] of 105%, a viability, T/C [18] of 114% and a viability, T/C [19] of 111%. For the same compound, the viability, T/C [20] was 111%, the viability, T/C [21] was 114% and the viability, T/C [22] was 119%. The viability, T/C [23] was 98.8%, the viability, T/C [24] was 112% and the viability, T/C [25] was 118%. For the same compound, the viability, T/C [26] was 121%, the viability, T/C [27] was 130% and the viability, T/C [28] was 121%. The viability, T/C [29] was 120% and the viability, T/C [30] was 104%.

Compound `CC1COCCN1c1cc(-c2ccnn2C)c2ccnc(-c3ccn[nH]3)c2n1` (stereo not given) + NC1CCC(NC2CC2c2ccccc2)CC1 has an IC50 (second compound 0.1 µM) greater than 1 µM, an IC50 (second compound 0.316 µM) greater than 1 µM and an IC50 (second compound 1 µM) greater than 1 µM. The IC50 (second compound 3.16 µM) was greater than 1 µM, the IC50 (second compound 10 µM) was greater than 1 µM and the viability, T/C [31] was 111%. For the same compound, the viability, T/C [32] was 109%, the viability, T/C [1] was 107% and the viability, T/C [2] was 92.6%. It also gave a viability, T/C [3] of 81.6%, a viability, T/C [4] of 64% and a viability, T/C [33] of 126%. The viability, T/C [34] was 110%, the viability, T/C [7] was 114% and the viability, T/C [8] was 87.1%. It also gave a viability, T/C [9] of 83%, a viability, T/C [10] of 62.7% and a viability, T/C [35] of 109%. For the same compound, the viability, T/C [36] was 128%, the viability, T/C [13] was 118% and the viability, T/C [14] was 98%. For the same compound, the viability, T/C [15] was 90.2%, the viability, T/C [16] was 59.5% and the viability, T/C [37] was 122%. It also gave a viability, T/C [38] of 138%, a viability, T/C [19] of 110% and a viability, T/C [20] of 101%. It also gave a viability, T/C [21] of 84.5%, a viability, T/C [22] of 76.1% and a viability, T/C [39] of 131%. The viability, T/C [40] was 117%, the viability, T/C [25] was 129% and the viability, T/C [26] was 105%. It also gave a viability, T/C [27] of 88.9% and a viability, T/C [28] of 71.7%.

In the case of `COc1ccc([C@@H](O)c2cc(-c3ncnc4cc(N5CCOCC5)ccc34)c(F)cc2Cl)nn1` + NC1CCC(NC2CC2c2ccccc2)CC1, the IC50 (second compound 0.1 µM) is reported as 2.81 µM, the IC50 (second compound 0.316 µM) is reported as 2.31 µM and the IC50 (second compound 1 µM) is reported as 1.67 µM. It also gave an IC50 (second compound 3.16 µM) of 1.85 µM, an IC50 (second compound 10 µM) of 1.9 µM and a viability, T/C [1] of 110%. It also gave a viability, T/C [2] of 109%, a viability, T/C [3] of 87.2% and a viability, T/C [4] of 70.9%. The viability, T/C [5] was 47.1%, the viability, T/C [6] was 34.9% and the viability, T/C [7] was 125%. For the same compound, the viability, T/C [8] was 121%, the viability, T/C [9] was 99% and the viability, T/C [10] was 65.9%. The viability, T/C [11] was 46.9%, the viability, T/C [12] was 18.6% and the viability, T/C [13] was 125%. It also gave a viability, T/C [14] of 112%, a viability, T/C [15] of 101% and a viability, T/C [16] of 61.6%. For the same compound, the viability, T/C [17] was 34.1%, the viability, T/C [18] was 19.4% and the viability, T/C [19] was 124%. For the same compound, the viability, T/C [20] was 123%, the viability, T/C [21] was 92.9% and the viability, T/C [22] was 62.2%. It also gave a viability, T/C [23] of 41.6%, a viability, T/C [24] of 17% and a viability, T/C [25] of 117%. The viability, T/C [26] was 120%, the viability, T/C [27] was 102% and the viability, T/C [28] was 66.1%. The viability, T/C [29] was 38.2% and the viability, T/C [30] was 26.4%.

With `O=C(C=Cn1cnc(-c2cc(C(F)(F)F)cc(C(F)(F)F)c2)n1)NNc1cnccn1` + NC1CCC(NC2CC2c2ccccc2)CC1 the IC50 (second compound 0.1 µM) was greater than 1 µM, the IC50 (second compound 0.316 µM) was greater than 1 µM and the IC50 (second compound 1 µM) was greater than 1 µM. For the same compound, the IC50 (second compound 3.16 µM) was greater than 1 µM, the IC50 (second compound 10 µM) was greater than 1 µM and the viability, T/C [31] was 102%. For the same compound, the viability, T/C [32] was 112%, the viability, T/C [1] was 113% and the viability, T/C [2] was 114%. For the same compound, the viability, T/C [3] was 102%, the viability, T/C [4] was 96% and the viability, T/C [33] was 95%. The viability, T/C [34] was 107%, the viability, T/C [7] was 131% and the viability, T/C [8] was 106%. For the same compound, the viability, T/C [9] was 97.8%, the viability, T/C [10] was 81.3% and the viability, T/C [35] was 103%. For the same compound, the viability, T/C [36] was 119%, the viability, T/C [13] was 130% and the viability, T/C [14] was 113%. It also gave a viability, T/C [15] of 91.6%, a viability, T/C [16] of 81.8% and a viability, T/C [37] of 112%. It also gave a viability, T/C [38] of 121%, a viability, T/C [19] of 140% and a viability, T/C [20] of 116%. For the same compound, the viability, T/C [21] was 91.8%, the viability, T/C [22] was 82.5% and the viability, T/C [39] was 120%. It also gave a viability, T/C [40] of 124%, a viability, T/C [25] of 126% and a viability, T/C [26] of 113%. It also gave a viability, T/C [27] of 102% and a viability, T/C [28] of 95.9%.

Reference: PubChem BioAssay AID1918942 (Molecular Pharmacology Branch, DTP, NCI, 2023)
